The values below come from patent publication US20240228950A1, “MICROPATTERNED 3D HYDROGEL MICROARRAY IN FLUIDIC CHANNELS FOR SPHEROID-IN-GEL CULTURE” (NANYANG TECHNOLOGICAL UNIVERSITY, priority 2021, published 2024).

Holding throughout (format): cell-based, human
One data set concerns MCF-7 spheroids. Description: Live/dead assay (Calcein-AM/PI) of spheroids-in-gel after drug treatment. To be noted: 3 days treatment.
For the next data set, the system named is HUVEC. The data set is described as follows: Live/dead assay (Calcein-AM/PI) of endothelial cells co-cultured with spheroids after drug treatment. The following applies: spheroid co-cultured with HUVEC, 3 days treatment. How it is done: The chip was incubated at 37° C. for 30 min to allow for gelation of collagen and Matrigel, following which DMEM with 10% FBS was added into the fluidic channel. For co-culture with HUVEC, the channel was coated with polydopamine (1 mg/mL) for 30 min at 37° ° C. to facilitate HUVEC adhesion and growth. The polydopamine solution was prepared by dissolving dopamine hydrochloride (Sigma Aldrich, St. Louis, MO, USA) in Tris-HCl buffer, pH 8.5. The channel was washed with 1× Phosphate Buffer Saline (PBS) three times, following which a suspension of HUVEC (1.5 million/mL) was loaded into the channel and allowed to grow for 2 days to reach confluency. The HUVEC were cultivated under static conditions.
Following that, the cells were stained with VE-Cadherin rabbit anti-human CD144 primary antibody (10 μg/mL, Enzo, Farmingdale, NY, USA) overnight at 4° C. On the next day, the cells were rinsed with 0.1% BSA in PBS three times, and fluorescently labeled with AlexaFluor 488 goat anti-rabbit secondary antibody (20 μg/mL, Life Technologies, Carlsbad, CA, USA) for 4 hr at room temperature. […]
The cells/spheroids were then imaged using a fluorescence microscope (Nikon Eclipse Ti, Melville, NY, USA). […] Fluorescence intensity of Calcein-AM and PI was analyzed using ImageJ and calculated according to equation (1) below.

For data set [1], the system named is HUVEC endothelial barrier. The data set is described as follows: Endothelial barrier integrity study (FITC-dextran 70 kDa diffusion into hydrogel island). To be noted: HUVEC treated with 100 and 500 nM for 3 days; 60 min dextran incubation. How it is done: To assess the endothelial barrier integrity after drug treatment in the spheroid-in-gel chip, Collagen I (3 mg/mL) and HUVEC were seeded into the chip as described in example 2C. Sub-confluent HUVEC were treated with Paclitaxel (100 and 500 nM) and cultured for 3 days prior to the barrier permeability test. Fluorescence images were taken before and after 1 hr incubation with 10 μg/mL 70 kDa dextran conjugated with fluorescein isothiocyanate (FITC, Sigma Aldrich, St. Louis, MO, USA) loaded in the fluidic channels. Fluorescence intensities within the hydrogel island were expressed as the fold change (time 60 min over 0 min) and normalized to the untreated control.

SMILES strings stand for the structures.

Experimental for MCF-7 spheroids: For spheroid-in-gel culture on the microarray chip, the PDMS surface was made hydrophilic by a 1-min plasma treatment using a plasma cleaner (PDC-002, Harrick Plasma Inc, Ithaca, NY, USA) to ensure even spreading of hydrogel onto the surface of the island. MCF-7 cells were dissociated and resuspended to a concentration of 1.7 million per mL. Collagen I was added to the suspension at 20 g/mL to enhance spheroid formation. MCF-7 suspension was loaded onto each island (3 L per island), following which the PDMS chip was inverted on top of a water reservoir for a hanging drop culture. […] The chip was maintained 37 °C for 2 days to allow for spheroid formation. […] Upon spheroid formation, the chip was subjected to media evaporation in the 37° C. incubator, following which collagen I (3 mg/mL) or Matrigel (4 mg/mL, Corning. NY, USA) was loaded onto each island (2 L per island) for in-place encapsulation of the spheroid. The chip was incubated at 37° C. for 30 min to allow for gelation of collagen and Matrigel, following which DMEM with 10% FBS was added into the fluidic channel. For co-culture with HUVEC, the channel was coated with polydopamine (1 mg/mL) for 30 min at 37° ° C. to facilitate HUVEC adhesion and growth. The polydopamine solution was prepared by dissolving dopamine hydrochloride (Sigma Aldrich, St. Louis, MO, USA) in Tris-HCl buffer, pH 8.5. The channel was washed with 1× Phosphate Buffer Saline (PBS) three times, following which a suspension of HUVEC (1.5 million/mL) was loaded into the channel and allowed to grow for 2 days to reach confluency. The HUVEC were cultivated under static conditions. […] The cells/spheroids were then imaged using a fluorescence microscope (Nikon Eclipse Ti, Melville, NY, USA). […] Fluorescence intensity of Calcein-AM and PI was analyzed using ImageJ and calculated according to equation (1) below. […] Spheroid area is determined by Hoechst staining. […] The same set of imaging parameters including exposure time and focal plane was used when acquiring the images to minimize inaccuracies in the fluorescence intensity.

As to `CC(=O)O[C@H]1C(=O)[C@@]2(C)[C@H]([C@H](OC(=O)c3ccccc3)[C@]3(O)C[C@H](OC(=O)[C@H](O)[C@@H](NC(=O)c4ccccc4)c4ccccc4)C(C)=C1C3(C)C)[C@]1(OC(C)=O)CO[C@@H]1C[C@@H]2O` [Paclitaxel], in the data set on MCF-7 spheroids (mono-cultured spheroids, PTX 1, 100, 500 nM), the “MCF-7 death by live/dead staining (Calcein-AM/PI)” value was “higher MCF-7 death with increasing drug concentration”. The “PI intensity of drug-treated spheroids, mono-culture versus co-culture” value in the data set with MCF-7 spheroids (with or without HUVEC co-culture, PTX 1, 100, 500 nM) is recorded as “negligible differences in PI intensity”. Moreover, the “Spheroid Calcein-AM intensity (survival), co-culture versus mono-culture” value in the data set with MCF-7 spheroids (with or without HUVEC co-culture, normalized to untreated group) is “trend of better survival of spheroids in co-cultures as compared to mono-culture, although no significant difference was observed”. In the data set with HUVEC, the “EC death by live/dead staining (Calcein-AM/PI)” value was “higher EC death”. Besides, the “Endothelial barrier integrity based on diffusion of FITC-Dextran 70 kDa into the hydrogel islands” value in data set [1] is “impaired the endothelial barrier integrity”.
